The test system of this assay is BDF1 mice, P388 leukemia ip, median survival T/C. The assay is described as follows: NCI In Vivo Anticancer Drug Screen. Data for tumor model P388 Leukemia (intraperitoneal) in B6D2F1 (BDF1) mice. Particulars: endpoint: median survival time, higher = longer survival. Put shortly:
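Read-out is survival of treated animals expressed relative to the vehicle group, as a T/C ratio.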

Setting [1] is: dose: 12.5 mg/kg/injection, schedule: Q01DX009 (ip), vehicle: saline with Tween-80.

This is an account of results in PubChem BioAssay AID328 (DTP/NCI, 2004).

Several values for one entry are separate records, joined by “and”; a condition that tells them apart may be missing. Identical values can stand only once. Toxic doses and inconclusive results are not listed.

Regarding `O=C=Nc1ccc(Cl)c(Cl)c1` (tested in a mixture with another compound), the T/C is, setting by setting: (dose: 50.0 mg/kg/injection, schedule: Q01DX011 (ip), vehicle: Klucel (hydroxypropylcellulose) (HPC)) 107 % of control; (dose: 100.0 mg/kg/injection, schedule: Q01DX011 (ip), vehicle: Klucel (hydroxypropylcellulose) (HPC)) 109 % of control; (dose: 200.0 mg/kg/injection, schedule: Q01DX011 (ip), vehicle: Klucel (hydroxypropylcellulose) (HPC)) 100 % of control; (dose: 400.0 mg/kg/injection, schedule: Q01DX011 (ip), vehicle: Klucel (hydroxypropylcellulose) (HPC)) 102 % of control.
In the case of `COc1cc([C@@H]2c3cc4c(cc3[C@@H](OC3OC5COC(C)OC5C(O)C3O)[C@H]3COC(=O)[C@H]23)OCO4)cc(OC)c1O` (stereo partly specified), the T/C runs as follows: (dose: 7.48 mg/kg/injection, schedule: Q04DX003 (ip), vehicle: other) 225 % of control; (dose: 11.8 mg/kg/injection, schedule: Q04DX003 (ip), vehicle: Klucel (hydroxypropylcellulose) (HPC)) 533 % of control; (dose: 11.8 mg/kg/injection, schedule: Q04DX003 (ip), vehicle: saline) 170 % of control; (dose: 12.0 mg/kg/injection, schedule: Q04DX003 (ip), vehicle: saline) 287 % of control; (dose: 12.5 mg/kg/injection, schedule: Q04DX003 (ip), vehicle: other) 266 % of control; (dose: 17.8 mg/kg/injection, schedule: Q04DX003 (ip), vehicle: Klucel (hydroxypropylcellulose) (HPC)) 535 % of control. Further, the T/C (dose: 17.8 mg/kg/injection, schedule: Q04DX003 (ip), vehicle: saline) was 200 % of control; the T/C (dose: 18.0 mg/kg/injection, schedule: Q04DX003 (ip), vehicle: Klucel (hydroxypropylcellulose) (HPC)) is 476 % of control; the T/C (dose: 18.0 mg/kg/injection, schedule: Q04DX003 (ip), vehicle: saline) was 548 % of control; the T/C (dose: 22.08 mg/kg/injection, schedule: Q04DX003 (ip), vehicle: other) is 490 % of control; the T/C (dose: 27.0 mg/kg/injection, schedule: Q04DX003 (ip), vehicle: Klucel (hydroxypropylcellulose) (HPC)) is 535 % of control; the T/C (dose: 27.0 mg/kg/injection, schedule: Q04DX003 (ip), vehicle: saline) was 550 % of control and 222 % of control. The T/C (dose: 30.0 mg/kg/injection, schedule: Q04DX003 (ip), vehicle: Klucel (hydroxypropylcellulose) (HPC)) is 242 % of control; the T/C (dose: 34.6 mg/kg/injection, schedule: Q04DX003 (ip), vehicle: other) was 491 % of control; the T/C (dose: 40.0 mg/kg/injection, schedule: Q04DX003 (ip), vehicle: saline) was 550 % of control; the T/C (dose: 40.5 mg/kg/injection, schedule: Q04DX003 (ip), vehicle: Klucel (hydroxypropylcellulose) (HPC)) is 535 % of control; the T/C (dose: 40.5 mg/kg/injection, schedule: Q04DX003 (ip), vehicle: saline) is 300 % of control; the T/C (dose: 60.0 mg/kg/injection, schedule: Q04DX003 (ip), vehicle: saline) was 202 % of control.
Consider `CC(=O)OC1C=CCC2C(=O)C34CC=CC(OC(C)=O)C3(C(=O)c3ccccc3C4=O)C(=O)C12` (stereo unspecified), for which the T/C (dose: 3.12 mg/kg/injection, schedule: Q01DX009 (ip), vehicle: saline) is 95 % of control; the T/C (dose: 12.5 mg/kg/injection, schedule: Q01DX009 (ip), vehicle: saline) was 95 % of control; the T/C (dose: 25.0 mg/kg/injection, schedule: Q01DX009 (ip), vehicle: saline) was 114 % of control.
In the case of `Nc1nc(-c2cccnc2)cc2ccccc12`, the T/C by setting is: (dose: 12.5 mg/kg/injection, schedule: Q04DX003 (ip), vehicle: saline with Tween-80) 106 % of control; (dose: 25.0 mg/kg/injection, schedule: Q04DX003 (ip), vehicle: saline with Tween-80) 91 % of control.
With `O=c1[nH]cc(CCCO)c(=O)[nH]1`, the T/C runs as follows: (dose: 50.0 mg/kg/injection, schedule: Q01DX009 (ip), vehicle: saline) 91 % of control; (dose: 100.0 mg/kg/injection, schedule: Q01DX009 (ip), vehicle: saline) 102 % of control; (dose: 100.0 mg/kg/injection, schedule: Q04DX003 (ip), vehicle: saline) 109 % of control; (dose: 200.0 mg/kg/injection, schedule: Q01DX009 (ip), vehicle: saline) 100 % of control; (dose: 200.0 mg/kg/injection, schedule: Q04DX003 (ip), vehicle: saline) 100 % of control; (dose: 400.0 mg/kg/injection, schedule: Q01DX009 (ip), vehicle: saline) 100 % of control. In addition, the T/C (dose: 400.0 mg/kg/injection, schedule: Q04DX003 (ip), vehicle: saline) is 109 % of control.
Take `C/C(=N/N(C)C)c1nc(N)nc(N)c1-c1ccc(Cl)cc1`: the T/C was 102 % of control (dose: 25.0 mg/kg/injection, schedule: Q01DX001 (ip), vehicle: saline with Tween-80); 109 % of control (dose: 50.0 mg/kg/injection, schedule: Q01DX001 (ip), vehicle: saline with Tween-80); 90 % of control and 96 % of control (dose: 100.0 mg/kg/injection, schedule: Q01DX001 (ip), vehicle: saline with Tween-80).
In the case of `CCCC(C)(O)C#CC(C)(O)CCC` (stereo unspecified), the T/C is, setting by setting: under setting [1], 101 % of control; (dose: 25.0 mg/kg/injection, schedule: Q01DX009 (ip), vehicle: saline with Tween-80) 92 % of control; (dose: 50.0 mg/kg/injection, schedule: Q01DX009 (ip), vehicle: saline with Tween-80) 93 % of control; (dose: 100.0 mg/kg/injection, schedule: Q04DX003 (ip), vehicle: saline with Tween-80) 100 % of control; (dose: 200.0 mg/kg/injection, schedule: Q04DX003 (ip), vehicle: saline with Tween-80) 104 % of control; (dose: 400.0 mg/kg/injection, schedule: Q04DX003 (ip), vehicle: saline with Tween-80) 90 % of control.
Take `COC(OC)C(=O)/C=C/C(C)COC1CCCCO1` (stereo unspecified): the T/C is, setting by setting: (dose: 50.0 mg/kg/injection, schedule: Q04DX003 (ip), vehicle: Klucel (hydroxypropylcellulose) (HPC)) 113 % of control; (dose: 100.0 mg/kg/injection, schedule: Q04DX003 (ip), vehicle: Klucel (hydroxypropylcellulose) (HPC)) 118 % of control; (dose: 200.0 mg/kg/injection, schedule: Q04DX003 (ip), vehicle: Klucel (hydroxypropylcellulose) (HPC)) 109 % of control.
As to `COc1ccc(C(=O)C(O)c2ccccc2)cc1` (stereo unspecified), the T/C is, setting by setting: (dose: 100.0 mg/kg/injection, schedule: Q04DX003 (ip), vehicle: other) 100 % of control; (dose: 200.0 mg/kg/injection, schedule: Q04DX003 (ip), vehicle: other) 100 % of control.
As for `CC(C)CNC(=S)/N=C1\CCN(c2ccccc2)N1`, the T/C by setting is: (dose: 4.5 mg/kg/injection, schedule: Q01DX009 (ip), vehicle: saline with Tween-80) 118 % of control; (dose: 9.0 mg/kg/injection, schedule: Q01DX009 (ip), vehicle: saline with Tween-80) 86 % of control; (dose: 18.0 mg/kg/injection, schedule: Q01DX009 (ip), vehicle: saline with Tween-80) 92 % of control.
Take `COc1ccccc1/C=C(/C)[N+](=O)[O-]`: the T/C is 90 % of control (dose: 10.0 mg/kg/injection, schedule: Q01DX010 (ip), vehicle: steriod suspending solution); 110 % of control (dose: 14.0 mg/kg/injection, schedule: Q01DX010 (ip), vehicle: steriod suspending solution); 120 % of control (dose: 22.0 mg/kg/injection, schedule: Q01DX010 (ip), vehicle: steriod suspending solution); 175 % of control (dose: 33.0 mg/kg/injection, schedule: Q01DX010 (ip), vehicle: carboxymethylcellulose (CMC)); 120 % of control (dose: 33.0 mg/kg/injection, schedule: Q01DX010 (ip), vehicle: steriod suspending solution); 120 % of control (dose: 50.0 mg/kg/injection, schedule: Q01DX010 (ip), vehicle: steriod suspending solution). Besides, the T/C reads like this: (dose: 70.0 mg/kg/injection, schedule: Q01DX010 (ip), vehicle: steriod suspending solution) 110 % of control; (dose: 75.0 mg/kg/injection, schedule: Q01DX010 (ip), vehicle: carboxymethylcellulose (CMC)) 95 % of control.
On to `C[N+](C)(CC(=O)Nc1ccc(Cl)c(Cl)c1)Cc1ccc(Cl)c(Cl)c1`, for which the T/C was 120 % of control (dose: 6.25 mg/kg/injection, schedule: Q01DX009 (ip), vehicle: saline with Tween-80) and 108 % of control under setting [1].
